What was measured:
PGM from rabbit muscle = biological target: T1, PGM from rabbit muscle (Oryctolagus cuniculus, UniProt P00949); experiment: Activity assay of phosphoglucomutase (PGM), commercial rabbit muscle PGM; type: biochemical; conditions: HPLC; for conversion of substrate by rabbit muscle PGM (glucosamine-1-phosphate to glucosamine-6-phosphate or reverse): 2 mM substrate, 30° C., 15 min, at completion/end of reaction
T1 construct: Commercial PGM from rabbit muscle; purchased Boehringer Mannheim 108375; host or cells: rabbit muscle
T1 sequence (P00949 1-562): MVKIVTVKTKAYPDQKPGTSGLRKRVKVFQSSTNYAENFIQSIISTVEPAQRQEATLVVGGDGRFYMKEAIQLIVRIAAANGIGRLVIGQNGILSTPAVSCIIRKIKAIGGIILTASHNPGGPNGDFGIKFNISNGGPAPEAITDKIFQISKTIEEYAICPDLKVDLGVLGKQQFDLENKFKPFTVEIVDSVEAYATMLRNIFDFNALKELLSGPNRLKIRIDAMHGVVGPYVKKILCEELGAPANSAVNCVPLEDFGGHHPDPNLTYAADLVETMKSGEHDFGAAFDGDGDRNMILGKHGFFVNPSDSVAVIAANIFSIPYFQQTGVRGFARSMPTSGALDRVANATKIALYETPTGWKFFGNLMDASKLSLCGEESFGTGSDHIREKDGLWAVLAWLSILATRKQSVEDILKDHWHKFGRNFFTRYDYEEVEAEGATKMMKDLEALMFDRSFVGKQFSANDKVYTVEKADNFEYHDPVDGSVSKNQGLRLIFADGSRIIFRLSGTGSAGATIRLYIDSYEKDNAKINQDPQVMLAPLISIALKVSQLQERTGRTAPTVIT
Method: (§1) 3. Activity Assay of Phosphoglucomutase (PGM)
(§2) glucosamine-6-phosphate→glucosamine-1-phosphate
(§3) 80 mM triethanolamine, pH 7.6
(§4) 20 μM glucosae-1,6-bisphosphate
(§5) 2 mM glucosamine-1-phosphate or glucosamine-6-phosphate
Commercial PGM from rabbit muscle (Boehringer Mannheim, Catalog No. 108375)
(§6) Incubated at 30° C. for 15 min.
(§7) * Transferred to a Centricon-30 concentrator and centrifuged at 1,400× for 20 min.
(§8) Removed 100 μl of the filtrate and added 400-μl water.
(§9) Injected 50 μl onto Dionex's CarboPac PA1 column and detected with a pulsed amperometry detector.
(§10) Eluted with 100 mM NaOH and 100 mM NaOH/1M sodium acetate (to detect formation of glucosamine-6-phosphate or glucosamine-1-phosphate): […]

Phosphoglucomutase (PGM) = experiment: Activity assay of phosphoglucomutase (PGM), maize endosperm protein extract; type: biochemical; conditions: extract from immature seeds, 20 days after pollination, HPLC
Method: as §1, §2, §3, §4, §5
Maize endosperm protein extract (200-μg total protein per 1.0 ml reaction)
Ground kernels in ice-cold homogenization buffer (50 mM KH2PO4, pH 7.0; 5 mM EDTA; and 1 mM
DTT). Kernels were dissected from an ear (HN18) harvested 20 days after pollination.
Filtered the homogenate through 4-layer cheesecloth, and centrifuged at 25,000×g for 20 min at 4° C.
Desalted the supernatant into the homogenization buffer using a fast FPLC desalting column and collected the flow through.
Added PMSF and chymostatin to a final concentration of 1 mM and used the flow-through as crude PGM prep for the assay.
as §6, §7, §8, §9, §10

UGPase = UGPase activity in the maize endosperm protein extract; type: biochemical; conditions: extract from seeds harvested 20 days after pollination
Method: For UGPase Activity in the Maize Endosperm
Weighted 8-g GS3 kernels (20 days after pollination);
Added 0.5-ml Boehringer's protease inhibitor cocktail (one tablet dissolved in 1-ml water);
Blended for 10 sec, 3×at 4° C.;
Filtered through three layers of Cheesecloth at 4° C.;
Passed two 100-μl aliquots through a BioRad's BioSpin-30 column using a swing bucked rotor in Jouan at 2100 rpm, at RT, & repeated (i.e. two Bio-Spin-30 columns used for each of the 2, 100-μl aliquots);
(§11) 48 mM Tris-HCl, pH 8.5; 19 mM MgCl2; 2.3 mM β-mercaptoethanol; 1 mM UTP; inorganic pyrophosphorylase; 2 mM glucose-1-P or glucosamine-1-P;
(§12) Carried out the reactions at 30° C. for 30 minutes;
(§13) Boiled for 5 min and passed through Centrion-10;

bovine liver UGPase = biological target: T2, bovine liver UGPase (Bos taurus, UniProt Q07130); experiment: Activity assay of UDPglucose pyrophosphorylase (UGPase), bovine liver enzyme; type: biochemical; conditions: 2 mM substrate, 1 mM UTP, 30° C., 30 minutes, HPLC
T2 construct: purchased Sigma U 5877; host or cells: bovine liver
T2 sequence (Q07130 1-508): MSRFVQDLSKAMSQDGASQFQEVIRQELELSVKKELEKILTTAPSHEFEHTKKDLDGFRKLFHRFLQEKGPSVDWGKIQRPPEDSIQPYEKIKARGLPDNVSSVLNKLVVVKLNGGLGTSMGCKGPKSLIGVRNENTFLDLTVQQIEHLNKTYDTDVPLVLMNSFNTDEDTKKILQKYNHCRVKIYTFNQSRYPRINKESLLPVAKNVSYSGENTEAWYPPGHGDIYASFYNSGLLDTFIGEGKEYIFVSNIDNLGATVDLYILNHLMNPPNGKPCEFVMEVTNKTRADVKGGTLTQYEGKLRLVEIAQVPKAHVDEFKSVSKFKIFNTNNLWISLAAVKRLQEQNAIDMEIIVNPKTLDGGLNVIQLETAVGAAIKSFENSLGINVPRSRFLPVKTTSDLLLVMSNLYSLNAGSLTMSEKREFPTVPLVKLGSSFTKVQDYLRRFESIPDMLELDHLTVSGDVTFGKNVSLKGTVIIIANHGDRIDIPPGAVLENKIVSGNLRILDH
Method: (§14) 4. Activity Assay of UDPglucose Pyrophosporylase (UGPase) [drawing 1]
(§15) The above reaction is evaluated with an alternative substrate, glucosamine-1-phosphate.
(§16) Enzymes: UDP-glucose pyrophorylases purified from Bakers yeast (U 8501) & bovine liver (U 5877) by Sigma;
(§17) UGPase assay was conducted per protocals used by Sigma;
as §11, §12, §13

Baker yeast UGPase = biological target: T3, Baker yeast UGPase (Saccharomyces cerevisiae, UniProt P32861); experiment: Activity assay of UDPglucose pyrophosphorylase (UGPase), Baker yeast enzyme; type: biochemical, Bakers yeast; conditions: 2 mM substrate, 1 mM UTP, 30° C., 30 minutes, HPLC
T3 construct: UDP-glucose pyrophorylases purified from Bakers yeast (U 8501); purchased Sigma U 8501; host or cells: Bakers yeast
T3 sequence (P32861 1-499): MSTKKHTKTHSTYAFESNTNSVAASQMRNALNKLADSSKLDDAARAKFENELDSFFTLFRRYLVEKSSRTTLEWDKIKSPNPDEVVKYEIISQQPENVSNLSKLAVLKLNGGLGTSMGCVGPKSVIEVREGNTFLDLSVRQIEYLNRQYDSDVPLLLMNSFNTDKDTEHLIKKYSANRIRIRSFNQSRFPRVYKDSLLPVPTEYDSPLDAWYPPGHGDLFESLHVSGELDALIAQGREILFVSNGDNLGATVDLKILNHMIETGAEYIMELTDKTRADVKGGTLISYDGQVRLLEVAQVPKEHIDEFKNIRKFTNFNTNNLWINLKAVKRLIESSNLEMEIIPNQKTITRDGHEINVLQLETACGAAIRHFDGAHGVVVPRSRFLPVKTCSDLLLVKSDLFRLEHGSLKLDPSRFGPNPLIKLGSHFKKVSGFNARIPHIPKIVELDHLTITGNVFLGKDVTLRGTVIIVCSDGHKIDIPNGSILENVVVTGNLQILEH
Method: as §14, §15, §16, §17
50 mM Tris-HCl, pH 7.6; 16 mM MgCl2; 10 mM L-cystein, 1 mM UTP; inorganic pyrophosphorylase; 2 mM glucose-1-P or glucosamine-1-P;
as §12, §13

[1] = tested on: yeast glycogen synthase (YGS); experiment: Activity assay of the yeast glycogen synthase (YGS) overexpressed in Pichia; type: biochemical; conditions: 6.7 mM UDP glucosamine, 1 mM maltoheptose, 30° C., 1 hour; preliminary results
Method: 6. Activity Assay of the Yeast Glycogen Synthase (YGS)
The last reaction: synthesis of cationic starch by the yeast glycogen synthase overexpressed in Pichia using UDPgluosamine and glucosyl oligosaccharide primers: […]
UDP glucosamine+starch→starch periodically interspersed with 2 amino anhydroglucose
The YGS produced from secreted expression in Pichia was isolated from the growth medium, desalted into a buffer containing 50 mM Tris-HCl and 5 mM EDTA, pH 7.8, and concentrated using Centricon-30 concentrator. The preparation was used for assaying the activity of YGS.
50 mM Tris-HCl and 5 mM EDTA, pH 7.8
6.7 mM UDP glucose or UDP glucosamine
6.7 mM glucose-6-phosphate
1 mM maltoheptose ([…], from Sigma)
Protein prep: 150 μg/300-μl reaction
Incubated at 30° C. for 1 hour.
Analyze by HPLC using Dionex's CarboPac-PA1 column with a pulsed amperometry detector (to detect the formation of elongated glusyl oligo primers);

## O=P(O)(O)O[C@H]1O[C@H](CO)[C@@H](O)[C@H](O)[C@H]1O [glucose-1-phosphate]
PGM from rabbit muscle; positive control, formation of glucose-6-phosphate
  use of substrate by rabbit muscle PGM (result in words): nearly depleted
Phosphoglucomutase (PGM)
  use of substrate by PGM in maize endosperm extract (result in words): near complete conversion

## N[C@H]1C(O)O[C@H](COP(=O)(O)O)[C@@H](O)[C@@H]1O (stereo partly drawn) [glucosamine-6-phosphate]
PGM from rabbit muscle
  conversion of substrate by rabbit muscle PGM (glucosamine-1-phosphate to glucosamine-6-phosphate or reverse): about 70%

## N[C@H]1C(OP(=O)(O)O)O[C@H](CO)[C@@H](O)[C@@H]1O (stereo partly drawn) [glucosamine-1-phosphate]
UGPase
  activity in using substrate to form UDP glucosamine: also found in maize endosperm protein extract
Bovine liver UGPase
  substrate recognition in formation of UDP glucosamine: recognized glucosamine-1-P as a substrate
PGM from rabbit muscle
  conversion of substrate by rabbit muscle PGM (glucosamine-1-phosphate to glucosamine-6-phosphate or reverse): about 60%
Baker yeast UGPase
  substrate recognition in formation of UDP glucosamine: recognized glucosamine-1-P as a substrate
Phosphoglucomutase (PGM)
  use of substrate by PGM in maize endosperm extract (result in words): Glucosamine-6-phosphate was detected

## N[C@H]1[C@@H](OP(=O)(O)OP(=O)(O)OC[C@H]2O[C@@H](n3ccc(=O)[nH]c3=O)[C@H](O)[C@@H]2O)O[C@H](CO)[C@@H](O)[C@@H]1O [UDP glucosamine]
[1]
  substrate recognition, transfer of glucosaminyl moiety to glucosyl oligo primers: recognize UDP glucosamine as a substrate
